Results as given in ChEMBL document CHEMBL1133884, “Microwave-assisted [6+4]-cycloaddition of fulvenes and alpha-pyrones to azulene-indoles: facile syntheses of novel antineoplastic agents” (Bioorg Med Chem Lett, 2001).

Key:
[1] = test system: A498; assay: In vitro inhibitory concentration against renal cancer cell line A498; format: functional, cell-based; settings: Homo sapiens
[2] = Average inhibitory concentration against 60 human cell lines was reported; format: functional
[3] = test system: CAKI-1; assay: In vitro inhibitory concentration against renal cancer cell line […]; format: functional, cell-based; settings: Homo sapiens
[4] = test system: HOP-92; assay: In vitro inhibitory concentration against non small cell lung HOP-92 cell line; format: functional, cell-based; settings: Homo sapiens
[5] = test system: PC-3; assay: In vitro inhibitory concentration against prostate cancer cell line PC-3; format: functional, cell-based; settings: Homo sapiens
[6] = test system: EKVX; assay: In vitro inhibitory concentration against non small cell lung EKVX cell line; format: functional, cell-based; settings: Homo sapiens
[7] = test system: T47D; assay: In vitro inhibitory concentration against breast cancer cell line T-47D; format: functional, cell-based; settings: Homo sapiens
[8] = test system: UACC-257; assay: In vitro inhibitory concentration against melanoma cell line UACC-257; format: functional, cell-based; settings: Homo sapiens
[9] = test system: Hs-578T; assay: In vitro inhibitory concentration against breast cancer cell line Hs 578.T; format: functional, cell-based; settings: Homo sapiens
[10] = test system: NCI-H322M; assay: In vitro inhibitory concentration against non small cell lung NCI-H322M cell line; format: functional, cell-based; settings: Homo sapiens
[11] = test system: K562; assay: In vitro inhibitory concentration against leukemia cell line K-562; format: functional, cell-based; settings: Homo sapiens
[12] = test system: NCI-H226; assay: In vitro inhibitory concentration against non small cell lung NCI-H226 cell line; format: functional, cell-based; settings: Homo sapiens
[13] = test system: IGROV-1; assay: In vitro inhibitory concentration against ovarian cancer cell line IGROV1; format: functional, cell-based; settings: Homo sapiens
[14] = test system: SR; assay: In vitro inhibitory concentration against leukemia cell line SR; format: functional, cell-based; settings: Homo sapiens
[15] = test system: U-251; assay: In vitro inhibitory concentration against CNS cancer cell line U251; format: functional, cell-based; settings: Homo sapiens
[16] = test system: UO-31; assay: In vitro inhibitory concentration against renal cancer cell line UO-31; format: functional, cell-based; settings: Homo sapiens

| SMILES | IC50 [1] [nM] | IC50 [2] [nM] | IC50 [3] [nM] | IC50 [4] [nM] | IC50 [6] [nM] | IC50 [10] [nM] | IC50 [11] [nM] | IC50 [12] [nM] | also measured |
| --- | --- | --- | --- | --- | --- | --- | --- | --- | --- |
| Cc1c2cccc-2c(N(C)C)cc2c1[nH]c1ccccc12 | 20900 | 3980 | 17400 | 560 |  |  |  |  | IC50 [5]: 1410 nM |
| Cc1c2cccc-2ccc2c1[nH]c1ccc(Br)cc12 | 21900 | 5370 |  |  | 1780 |  |  |  | IC50 [7]: 1700 nM; IC50 [8]: 24000 nM |
| Cc1c2cccc-2c(OCCO)cc2c1[nH]c1ccccc12 | 13800 | 2510 |  |  | 1000 | 17000 |  |  | IC50 [9]: 930 nM |
| CC(=O)OCCOc1cc2c([nH]c3ccccc32)c(C)c2cccc1-2 |  | 2750 |  | 1380 |  | 14500 | 510 | 11200 |  |
| CC(=O)Oc1ccc2[nH]c3c(C)c4cccc-4ccc3c2c1 |  | 2190 |  |  |  |  | 3800 | 1380 | IC50 [13]: 1580 nM; IC50 [14]: 4570 nM |
| Cc1c2cccc-2ccc2c1[nH]c1ccccc12 | 11700 | 2400 | 6600 |  |  |  |  |  | IC50 [15]: 1480 nM; IC50 [16]: 1620 nM |
